No end group written: not given here.
Key:
[1] = Toxicity assessment, cell survival of endothelial cells; type: cell-based; settings: bovine, endothelial cells (BAEC), increasing concentrations up to 1,000 ng/ml, 48 hours of exposure
Description: (§1) The chimeric peptides of the invention and the peptides from which they are derived were found safe, non-toxic, to normal cells such endothelial cells (BAEC; FIG. 9a) and fibroblasts (FF; FIG. 9B). Cells incubated with increasing concentrations (up to 1,000 ng/ml) of the chimeric peptide (black square), the haptide alone (white/empty circle) or the M-tide alone (white/empty square), maintained 100% survival. Cell survival was measured following 48 hours of exposure to the peptides.

[2] = Toxicity assessment, cell survival of fibroblasts; type: cell-based; settings: human, fibroblasts (FF), increasing concentrations up to 1,000 ng/ml, 48 hours of exposure
Description: as §1

| Sequence | viability at 48 h [1] [%] | viability at 48 h [2] [%] |
| --- | --- | --- |
| KTRWYSMKKTTMK [haptide, KTRWYSMKKTTMK, reference compound] | 100 | 100 |
| VFQKRLDGSVDFKK [M-tide, VFQKR LDGSV DFKK] | 100 | 100 |
| KTRWYSMKKTTMKVFQKRLDGSVDFKK [chimeric peptide] | 100 | 100 |

Source: patent publication US8354111B2, “Stable cell binding chimeric peptides” (Hadasit Medical Research Services and Development Ltd., priority 2008, dated 2013)
